{"source": "patent US20240368174A1", "about": "“Antiviral Heterocyclic Compounds” (Enanta Pharmaceuticals, Inc., priority 2023, published 2024)", "key": {"[1]": {"system": "genotype A, “Long” strain RSV", "assay": "RSV-A assay (CPE, ATPlite readout in Hep-2 cells)", "format": "cell-based, Human respiratory syncytial virus", "details": "human respiratory syncytial virus, activity class", "procedure,_shortened": "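ATPlite luminescence (cellular ATP) served as the measure of cell health after 5 days of infection. Hep-2 cells at 8,000 per well received duplicate 2-fold compound dilutions plus virus at MOI 0.1, and EC50 was calculated from CPE protection.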"}, "[2]": {"system": "HMPV clinical isolate A2 strain TN 94-49", "assay": "HMPV antiviral assay, Method 1 (LLC-MK2 cells, ATP-Lite)", "format": "cell-based", "details": "human metapneumovirus, hMPV A2 TN/94-49, LLC-MK2 cells", "procedure,_shortened": "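EC50 derived by four-parameter logistic fit of percent cell health, measured as ATP-Lite luminescence after 7 days at 37° C, 5% CO2. Compounds tested as 10-point 2.5-fold dilutions starting at 2 μM against TN 94-49 virus (MOI 0.005) in LLC-MK2 cells seeded at 5,000/well, infection medium containing 2 μg/mL TPCK-trypsin, serum-free.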"}, "[3]": {"system": "HMPV clinical isolate A2 strain TN 94-49", "assay": "HMPV antiviral assay, Method 2 (LLC-MK2 cells with CP-100-356, ATP-Lite)", "format": "cell-based", "details": "human metapneumovirus; hMPV A2 TN/94-49, LLC-MK2 cells with CP-100-356, Method 2", "procedure,_shortened": "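EC50 comes from a four-parameter fit of percent cell viability (ATP-Lite, normalized to virus-only and cell-only wells) after 7 days at 37 °C. Infection used HMPV A2 TN 94-49 at MOI 0.16 in LLC-MK2 cells, with 2 μM P-gp inhibitor CP-100-356 and 2 μg/mL TPCK-trypsin final; dose range 200 nM top, 2.5-fold, 10 points, duplicate.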"}, "HRSV": {"system": "HRSV", "details": "prophylactic use, high risk infants; cited from earlier work"}}}
{"molecule": "[2H]C([2H])([2H])C1=NC2C(OC)=CC(C(=O)NC[C@](O)(c3cc4c(c(-c5ccc6c(c5Cl)OC(F)(F)O6)n3)OC[C@]4(C)C(N)=O)C3CC3)=CC2S1", "note": "(stereo partly shown) [Example 127]", "values": [{"measurement": "EC50", "setting": "[1]", "result": "< 200", "unit": "nM"}, {"measurement": "EC50", "setting": "[2]", "result": "< 500", "unit": "nM"}]}
{"molecule": "COc1cc(C(=O)NC[C@](O)(c2cc3c(c(-c4ccc5c(c4Cl)OC(F)(F)O5)n2)OC[C@]3(C)C(N)=O)C2CC2)cc2cn(C3(F)CC3)nc12", "note": "[Example 128]", "values": [{"measurement": "EC50", "setting": "[1]", "result": "< 200", "unit": "nM"}, {"measurement": "EC50", "setting": "[2]", "result": "< 500", "unit": "nM"}]}
{"molecule": "C[C@]1(C(N)=O)COc2c1cc([C@@](O)(CNC(=O)c1cc(OC3CC3)c3nn(C(F)F)cc3c1)C1CC1)nc2-c1ccc2c(c1Cl)OC(F)(F)O2", "note": "[Example 129]", "values": [{"measurement": "EC50", "setting": "[1]", "result": "< 200", "unit": "nM"}, {"measurement": "EC50", "setting": "[2]", "result": "< 500", "unit": "nM"}, {"measurement": "EC50", "setting": "[3]", "result": "< 200", "unit": "nM"}]}
{"molecule": "COc1cc(C(=O)NC[C@](O)(c2cc3c(c(-c4cc(Cl)c(F)cc4F)n2)OC[C@]3(C)C(N)=O)[C@H]2CC2(F)F)cc2cn(C3CC3)nc12", "note": "[Example 150]", "values": [{"measurement": "EC50", "setting": "[1]", "result": "< 200", "unit": "nM"}, {"measurement": "EC50", "setting": "[2]", "result": "< 500", "unit": "nM"}]}
{"molecule": "COc1cc(C(=O)NC[C@](O)(c2cc3c(c(-c4cc(Cl)c(F)cc4F)n2)OC[C@]3(C)C(N)=O)[C@@H]2CC2(F)F)cc2cn(C3CC3)nc12", "note": "[Example 151]", "values": [{"measurement": "EC50", "setting": "[1]", "result": "< 200", "unit": "nM"}, {"measurement": "EC50", "setting": "[2]", "result": "< 500", "unit": "nM"}]}
{"molecule": "COc1cccc([C@](O)(CNC(=O)c2cc(OC)c3nn(C(F)F)cc3c2)c2cc3c(c(-c4cc(Cl)c(F)cc4F)n2)OC[C@]3(C)C(N)=O)c1", "note": "[Example 161]", "values": [{"measurement": "EC50", "setting": "[1]", "result": "< 200", "unit": "nM"}, {"measurement": "EC50", "setting": "[2]", "result": "< 500", "unit": "nM"}]}
{"molecule": "COc1cccc([C@](O)(CNC(=O)c2cc(OC)c3nn(C4(F)CC4)cc3c2)c2cc3c(c(-c4cc(Cl)c(F)cc4F)n2)OC[C@]3(C)C(N)=O)c1", "note": "[Example 162]", "values": [{"measurement": "EC50", "setting": "[1]", "result": "< 200", "unit": "nM"}, {"measurement": "EC50", "setting": "[2]", "result": "< 500", "unit": "nM"}, {"measurement": "EC50", "setting": "[3]", "result": "< 200", "unit": "nM"}]}
{"molecule": "C=C(CNC(=O)c1cc(OC)c2nn(C3CC3)cc2c1)c1cc2c(c(-c3cc(Cl)c(F)cc3F)n1)OC[C@]2(C)C(N)=O", "note": "[Example 214]", "values": [{"measurement": "EC50", "setting": "[1]", "result": "< 200", "unit": "nM"}, {"measurement": "EC50", "setting": "[2]", "result": "> 500", "unit": "nM"}]}
{"molecule": "[2H]c1nc2c(OC(F)F)cc(C(=O)NC[C@](O)(c3cc4c(c(-c5cc(Cl)c(F)cc5F)n3)OC[C@]4(C)C(N)=O)C3CC3)cc2cc1C([2H])([2H])[2H]", "note": "[Example 218]", "values": [{"measurement": "EC50", "setting": "[1]", "result": "< 200", "unit": "nM"}, {"measurement": "EC50", "setting": "[2]", "result": "< 500", "unit": "nM"}, {"measurement": "EC50", "setting": "[3]", "result": "< 200", "unit": "nM"}]}
{"molecule": "COc1cc(C(=O)NC[C@](O)(c2cc3c(c(-c4cc(Cl)c(F)cc4F)n2)OC[C@]3(C)C(N)=O)C2(CO)CC2)cc2cn(C3CC3)nc12", "note": "[Example 245]", "values": [{"measurement": "EC50", "setting": "[1]", "result": "< 200", "unit": "nM"}, {"measurement": "EC50", "setting": "[2]", "result": "> 500", "unit": "nM"}]}
{"molecule": "C[C@]1(C(N)=O)COc2c1cc([C@@](O)(CNC(=O)c1cc(O)c3nn(C4CC4)cc3c1)C1CC1)nc2-c1cc(F)c(F)cc1F", "note": "[Example 360]", "values": [{"measurement": "EC50", "setting": "[1]", "result": "< 200", "unit": "nM"}, {"measurement": "EC50", "setting": "[2]", "result": "> 500", "unit": "nM"}, {"measurement": "EC50", "setting": "[3]", "result": "< 200", "unit": "nM"}]}
{"molecule": "COc1cc(C(=O)NC[C@](O)(c2cc3c(c(-c4cc(C)c(F)cc4F)n2)OC[C@]3(C)C(N)=O)C2CC2)cc2cn(C3CC3)nc12", "note": "[Example 385]", "values": [{"measurement": "EC50", "setting": "[1]", "result": "< 200", "unit": "nM"}, {"measurement": "EC50", "setting": "[2]", "result": "< 500", "unit": "nM"}, {"measurement": "EC50", "setting": "[3]", "result": "< 200", "unit": "nM"}]}
{"molecule": "COc1cc(C(=O)NC[C@](O)(c2cc3c(c(-c4ccc(F)c(Cl)c4C)n2)OC[C@]3(C)C(N)=O)C2CC2)cc2cn(C3CC3)nc12", "note": "[Example 391]", "values": [{"measurement": "EC50", "setting": "[1]", "result": "< 200", "unit": "nM"}, {"measurement": "EC50", "setting": "[2]", "result": "< 500", "unit": "nM"}]}
{"molecule": "COc1cc(C(=O)NC[C@](O)(c2cc3c(c(-c4ccc5c(c4C)OC(F)(F)O5)n2)OC[C@]3(C)C(N)=O)C2CC2)cc2cn(C3CC3)nc12", "note": "[Example 392]", "values": [{"measurement": "EC50", "setting": "[1]", "result": "< 200", "unit": "nM"}, {"measurement": "EC50", "setting": "[2]", "result": "< 500", "unit": "nM"}]}
{"molecule": "COc1cc(C(=O)NC[C@](O)(c2cc3c(c(-c4cc(C(F)F)c(F)cc4F)n2)OC[C@]3(C)C(N)=O)C2CC2)cc2cn(C3CC3)nc12", "note": "[Example 393]", "values": [{"measurement": "EC50", "setting": "[1]", "result": "< 200", "unit": "nM"}, {"measurement": "EC50", "setting": "[2]", "result": "< 500", "unit": "nM"}, {"measurement": "EC50", "setting": "[3]", "result": "< 200", "unit": "nM"}]}
{"molecule": "COc1cc(C(=O)NC[C@](O)(c2cc3c(c(-c4cc(C(F)(F)F)c(F)cc4F)n2)OC[C@]3(C)C(N)=O)C2CC2)cc2cn(C3CC3)nc12", "note": "[Example 394]", "values": [{"measurement": "EC50", "setting": "[1]", "result": "< 200", "unit": "nM"}, {"measurement": "EC50", "setting": "[2]", "result": "< 500", "unit": "nM"}, {"measurement": "EC50", "setting": "[3]", "result": "< 200", "unit": "nM"}]}
{"molecule": "COc1cc(C(=O)NC[C@](O)(c2cc3c(c(-c4ccc5c(c4Cl)OC(F)(F)O5)n2)OC[C@]3(C)C(N)=O)C2CC2)cc2cn(C(F)F)nc12", "note": "[Example 457]", "values": [{"measurement": "EC50", "setting": "[1]", "result": "< 200", "unit": "nM"}, {"measurement": "EC50", "setting": "[2]", "result": "< 500", "unit": "nM"}, {"measurement": "EC50", "setting": "[3]", "result": "< 200", "unit": "nM"}]}
{"molecule": "Palivizumab: \"a monoclonal antibody that is approved for prophylactic use, but its use is limited due to its high price\"", "values": [{"measurement": "effective in reducing hospitalizations", "setting": "HRSV", "result": 60, "unit": "%"}]}
